Laboratory results taken from patent publication US7576094B2, “Spiro derivatives as lipoxygenase inhibitors” (Eli Lilly and Company, priority 2004, dated 2009).

What was measured:
[1] = test system: release of the leukotriene LTB4 from a neutrophil cell line (MPRO cell line); assay: LTB4-Cell Assay; type: cell-based; conditions: Mus musculus, 1 h, read-out: inhibition of LTB4 with an EC50
Source text: • This procedure was used for measuring the release of the leukotriene LTB4 from a neutrophil cell line using a competitive ELISA technique. Materials and Equipments Materials for Cell Preparation and Experiment • MPRO cell line (ATCC, Catalog # CRL-11422) • Calcium ionophore (A23187) (Sigma, Catalog # C7522) • Nordihydroguaiaretic acid (NDGA) (BioMol ,Catalog # EI101-0001) • Retinoic Acid (all-trans) (ATRA) (Sigma, Catalog # 95152) • Sterile, tissue-culture treated 96-well plates (Corning, Catalog # 3614) Materials for LTB4 ELISA • Precoated (Mouse Anti-Rabbit IgG) EIA 96 Well Strip Plates (Cayman, Catalog # 400004) • Leukotriene B4 AChE Tracer (Cayman Catalog # 420110) • Leukotriene B4 EIA Antiserum (Cayman Catalog # 420112) • Ellman's Reagent (Cayman Catalog # 400050) • EIA Buffer Concentrate (10×) (Cayman Catalog # 400060) • Wash Buffer Concentrate (400×) (Cayman Catalog # 400062) • Plastic plate covers (Cayman Catalog # 400012) Procedure
A mouse promyelocytic cell line (MPRO) was used in this assay. These cells are committed immature neutrophils that can be differentiated into mature neutrophils by treatment with 10 μM all-trans retinoic acid for 72 hours.
Following 72 hours of differentiation, cells were stimulated with 1 μM of a calcium ionophore (A23187) in the presence or absence of test compound or vehicle for 1 hour at 37° C. After this time, supernatant was removed from the cells and the LTB4 levels were determined following manufacturer's instructions, using a Leukotriene B4 EIA kit from Cayman (Cat # 5201 11). The negative controls were media samples from differentiated but un-stimulated cells. The compounds were screened at 5 concentrations in quadruplicate starting at 10 μM.

[2] = target: T1, human recombinant 5-Lipoxygenase (Homo sapiens, UniProt P09917); assay: 5-Lipoxygenase Enzyme Assay; type: biochemical; conditions: 70 μM arachidonic acid, 10 minute incubation at room temperature, FOX reagent, absorbance at 620 nm; read-out: inhibition of 5-Lipoxygenase with an IC50
T1 sequence (P09917 1-674): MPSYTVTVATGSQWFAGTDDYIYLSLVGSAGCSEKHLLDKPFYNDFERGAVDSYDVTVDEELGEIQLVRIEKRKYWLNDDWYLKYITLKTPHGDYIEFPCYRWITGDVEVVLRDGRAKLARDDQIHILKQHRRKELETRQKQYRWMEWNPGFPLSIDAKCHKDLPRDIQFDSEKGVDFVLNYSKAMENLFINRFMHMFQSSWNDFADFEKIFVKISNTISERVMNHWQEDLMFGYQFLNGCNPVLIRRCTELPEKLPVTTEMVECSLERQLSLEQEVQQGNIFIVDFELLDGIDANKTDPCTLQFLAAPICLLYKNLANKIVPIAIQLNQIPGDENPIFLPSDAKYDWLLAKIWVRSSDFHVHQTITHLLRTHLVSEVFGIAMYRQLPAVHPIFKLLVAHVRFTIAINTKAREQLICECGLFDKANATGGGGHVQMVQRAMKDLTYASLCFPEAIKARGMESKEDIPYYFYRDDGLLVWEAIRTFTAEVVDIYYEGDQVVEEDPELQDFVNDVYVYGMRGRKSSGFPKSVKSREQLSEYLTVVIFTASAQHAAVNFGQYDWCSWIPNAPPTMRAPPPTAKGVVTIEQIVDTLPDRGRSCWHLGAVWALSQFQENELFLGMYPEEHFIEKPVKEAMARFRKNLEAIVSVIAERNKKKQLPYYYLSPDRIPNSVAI
Source text: This procedure was used for measuring the enzymatic activity of human recombinant 5-Lipoxygenase using a colorimetric method based on the ferric oxidation of xylenol orange.
• 96 well flat bottom microfilter plates (VWR, Catalog # 62402-933 9295) • Lipoxygenase screening assay buffer (Cayman, Catalog # 760710) • Human recombinant 5-Lipoxygenase (Cayman, Catalog # 60402) • Arachidonic Acid (Sigma, Catalog # A3555) • Xylenol orange tetra sodium salt (Aldrich, Catalog # 227854) • Iron (II) sulfate heptahydrate (Sigma, Catalog # F7002) • Sulfuric acid (95-98%) [18 M] • Methanol Procedure
Human recombinant 5-Lipoxygenase (Cayman Cat # 60402) was used in this assay. The test compound and/or vehicle was added to 0.5 μL 5-Lipoxygenase in 50 mM Tris-HCl buffer, pH 7.4. The reaction was initiated by addition of 70 μM arachidonic acid in Tris-HCl buffer, pH 7.4, and terminated after a 10 minute incubation at room temperature by addition of FOX reagent (25 mM sulfuric acid, 100 μM xylenol orange, 100 μM iron (II) sulfate, methanol:water 9:1). The yellow color of acidified xylenol orange was converted to a blue color by the lipid hydroperoxide-mediated oxidation of Fe^2+ ions and the interaction of the resulting Fe^3+ ions with the dye. The complex was allowed to form during a 1 hour incubation at room temperature with shaking. Absorbance of the Fe^3+ complex was then measured at […] using a spectrophotometer.
Negative controls contained enzyme during the incubation step but substrate was not added until after the FOX reagent. Compounds were screened at 5 concentrations in triplicate starting at 10 μM

[3] = test system: LTB4 production in human whole blood; assay: Inhibition of LTB4 Production in Blood; type: cell-based; conditions: 1 h, 20 μM A23187, 60 minutes at 37° C., LTB4 in plasma by ELISA, read-out: protection against LTB4 at an EC50
Protocol: • Human whole blood (Na citrate) (Stanford Blood Center) • A23187, (Sigma, Cat# C-7522) • Leukotriene B4 EIA reagents (Cayman Chemical, Cat # 520111) • BWA4C (Sigma, Cat # B7559) Procedure Preparation of A23187:
A23187 was prepared as a 10 mM stock solution in DMSO (aliquots can be stored at −20° C.). On the day of the assay the stock solution was diluted as follows: 70 μL 10 mM stock added to 1.6 mL plasma to give a working concentration of 0.42 mM.
From a 30 mM stock solution in DMSO, test articles were diluted to a working concentration of 600 μM in PBS (i.e. 10 μL stock solution+490 μL PBS). This is the highest concentration (gives a final testing concentration of 30 μM). From this 600 μM solution test articles were serially diluted 1:3 in PBS to give a dose-response curve. 10 μL of each concentration of test article was then added to 4 wells of a 96-well plate (i.e. testing in quadruplicate). A positive control compound, BWA4C was used in every assay.
Human whole blood was added to the plates containing compounds (190 μL per well) and mixed well. The blood was incubated with compound at 37° C. for 15 minutes. Following this incubation, 10 μL of 0.42 mM A23187 was added to each well except the negative control wells to give a final calcium ionophore concentration of 20 μM. The plates were then incubated at 37° C. for 60 minutes. After the incubation period, plates were centrifuged for 15 min at 2000 g at 4° C. in sealed microplate buckets. Plasma was then removed for quantitation of LTB4 levels by ELISA.
LTB4 levels in the plasma were determined using a commercially available ELISA kit from Cayman Chemicals. The ELISA was run according to the manufacturer's instructions. The LTB4 levels in the vehicle control sample were then compared to those in which the test article had been added. From this a percent inhibition of LTB4 production by each concentration of test article was calculated and the IC50 was determined.

## Cc1c(C)c2c(c(C)c1OCc1ccc3ccccc3n1)CCC1(CCC1)O2 [2-{[(5,7,8-trimethyl-3,4-dihydrospiro[chromene-2,1′-cyclobutan]-6-yl)oxy]methyl}quinoline]
[1]
  EC50: < 5 µM

## Cc1c(C)c2c(c(C)c1O)C(C#N)=CC1(CCC1)O2 [6-hydroxy-5,7,8-trimethylspiro[chromene-2,1′-cyclobutane]-4-carbonitrile]
[1]
  EC50: < 5 µM

## CON(C)C1CC2(CCC2)Oc2c(C)c(C)c(O)c(C)c21 (stereo not drawn) [4-[methoxy(methyl)amino]-5,7,8-trimethyl-3,4-dihydrospiro[chromene-2,1′-cyclobutan]-6-ol]
[1]
  EC50: < 5 µM

## Cc1c(O)c(C(C)(C)C)cc2c1C(O)CC1(CCC1)O2 (stereo not drawn) [7-tert-butyl-5-methylspiro[chroman-2,1′-cyclobutane]-4,6-diol]
[1]
  EC50: < 5 µM

## CCc1c(O)c(C)c(C)c2c1/C(=N/OC)CC1(CCC1)O2 [5-ethyl-6-hydroxy-7,8-dimethylspiro[chromene-2,1′-cyclobutan]-4(3H)-one O-methyloxime]
[2]
  IC50: < 0.3 µM
[1]
  EC50: < 5 µM

## CC(C)=CCC/C(C)=C/Cc1c(O)c(C)c(C)c2c1CCC1(CCC1)O2 [5-(3,7-dimethylocta-2,6-dienyl)-7,8-dimethylspiro[chroman-2,1′-cyclobutan]-6-ol]
[2]
  IC50: < 0.3 µM
[3]
  EC50: < 10 µM

## Cc1ccc(S(=O)(=O)NCCCN2CC3(CCC3)Cc3cc(O)c(C)c(C)c32)cc1 [N-(3-(6′-hydroxy-7′,8′-dimethyl-2′,4′-dihydro-1′H-spiro[cyclobutane-1,3′-quinoline]-1′-yl)propyl)-4-methylbenzenesulfonamide]
[2]
  IC50: < 0.3 µM
[3]
  EC50: < 10 µM

## Cc1cc2c(c(C)c1O)C=C(c1nc(C)c(C)[nH]1)C1(CCC1)O2 [5,7-dimethyl-3-(-(4,5-dimethyl-1H-imidazol-2-yl)spiro[chromene-2,1′-cyclobutan]-6-ol]
[2]
  IC50: < 0.3 µM
[3]
  EC50: < 10 µM

## CCO/N=C1\CC2(CCC2)Oc2c(C)c(C)c(O)c(CC)c21 [5-ethyl-6-hydroxy-7,8-dimethylspiro[chromene-2,1′-cyclobutan]-4(3H)-one O-ethyloxime]
[2]
  IC50: < 0.3 µM
[1]
  EC50: < 5 µM

## Cc1c(C)c2c(c(C)c1O)C(O)CC1(CCC1)O2 (stereo not drawn) [5,7,8-trimethyl-3,4-dihydrospiro[chromene-2,1′-cyclobutane]-4,6-diol]
[1]
  EC50: < 5 µM

## Cc1c(O)c(C(C)C)cc2c1[C@@H](O)CC1(CCC1)O2 [(S)-7-isopropyl-5-methylspiro[chroman-2,1′-cyclobutane]-4,6-diol]
[2]
  IC50: < 0.3 µM
[3]
  EC50: < 10 µM

## Cc1cc(O)c(Cl)c2c1OC1(CCC1)CC2 [5-chloro-8-methyl-3,4-dihydrospiro[chromene-2,1′-cyclobutan]-6-ol]
[1]
  EC50: < 5 µM

## CONC1CC2(CCC2)Oc2cc(C(C)C)c(O)c(C)c21 (stereo not drawn) [7-isopropyl-4-(methoxyamino)-5-methyl-3,4-dihydrospiro[chromene-2,1′-cyclobutan]-6-ol]
[2]
  IC50: < 0.3 µM
[3]
  EC50: < 10 µM

## CCc1cc2c(c(CC)c1O)[C@H](O)CC1(CCC1)O2 [(R)-5,7-diethylspiro[chroman-2,1′-cyclobutane]-4,6-diol]
[2]
  IC50: < 0.3 µM
[3]
  EC50: < 10 µM

## CCc1cc2c(c(CC)c1O)CCC1(CCC1)O2 [5,7-diethyl-3,4-dihydrospiro[chromene-2,1′-cyclobutan]-6-ol]
[2]
  IC50: < 0.3 µM
[3]
  EC50: < 10 µM

## Cc1c(O)cc2c(c1C)N(c1ccc(O)cc1)C1(CC2)CC1 [1′-(4-hydroxyphenyl)-7′,8′-dimethyl-3′,4′-dihydro-1′H-spiro[cyclopropane-1,2′-quinolin]-6′-ol]
[2]
  IC50: < 0.3 µM
[3]
  EC50: < 10 µM

## Cc1c(O)c(C(C)C)cc2c1[C@H](O)CC1(CCC1)O2 [(R)-7-isopropyl-5-methylspiro[chroman-2,1′-cyclobutane]-4,6-diol]
[2]
  IC50: < 0.3 µM
[3]
  EC50: < 10 µM

## CONCC1=Cc2c(cc(C)c(OC(=O)C(C)(C)C)c2C)OC12CCC2 [3-[(methoxyamino)methyl]-5,7-dimethylspiro[chromene-2,1′-cyclobutan]-6-yl pivalate]
[1]
  EC50: < 5 µM

## Cc1cc(O)c(C(C)C)c2c1OC1(CCC1)CC2 [5-isopropyl-8-methyl-3,4-dihydrospiro[chromene-2,1′-cyclobutan]-6-ol]
[1]
  EC50: < 5 µM

## COC1CC2(CCC2)Oc2cc(C(C)C)c(O)c(C)c21 (stereo not drawn) [7-isopropyl-4-methoxy-5-methylspiro[chroman-2,1′-cyclobutan]-6-ol]
[2]
  IC50: < 0.3 µM
[3]
  EC50: < 10 µM

## Cc1c(O)cc2c(c1C)N(CCCN1C(=O)c3ccccc3C1=O)CC1(CC1)C2 [2-(3-(6′-hydroxy-7′,8′-dimethyl-2′,4′-dihydro-1′H-spiro[cyclopropane-1,3′-quinoline]-1′-yl)propyl)isoindoline-1,3-dione]
[1]
  EC50: < 5 µM

## Cc1c(C)c2c(c(C)c1O)C(N(C)O)CC1(CCC1)O2 (stereo not drawn) [4-[hydroxy(methyl)amino]-5,7,8-trimethyl-3,4-dihydrospiro[chromene-2,1′-cyclobutan]-6-ol]
[2]
  IC50: < 0.3 µM
[3]
  EC50: < 10 µM

## Cc1c(OC(=O)CN(C)C)cc2c(c1C)OC1(CCC1)CC2 [7,8-dimethyl-3,4-dihydrospiro[chromene-2,1′-cyclobutan]-6-yl (dimethylamino)acetate]
[1]
  EC50: < 5 µM
